These results are taken from US10363288B2, “Insulin mimotopes and methods of using the same” (THE REGENTS OF THE UNIVERSITY OF COLORADO, a body corporate, priority 2015, dated 2019).

One assay concerns CD4 T cells. As to the kind of experiment: CFSE proliferation assay of CD4 T cells from PBMCs of established T1D subjects. In kind it is cell-based, human.
Another assay has as its system NOD mouse. The note with it: administered at low doses; cited from earlier work.

With “SHLVEALYLVCGEEG [B: 9-23 B22E, B:9-23 mimotope; B22 arginine to glutamic acid]”, the “proliferation of CD4 T cells (CFSE dilution)” value in the assay on CD4 T cells is “proliferation of CD4 T cells much more than the wild type peptide”. For the same sequence, the “inducing tolerance and preventing diabetes onset” value in the assay with NOD mouse was “completely preventing diabetes onset”.
